Experiments:
Experiment in all cases: relative viability (nuclei count vs DMSO), 5 days (fraction); higher = more cells survive
NCI-H1666 = test system: NCI-H1666
Outline: (§1)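 Lung cancer cell lines in 1536-well plates got either a single drug or a fixed anchor-drug dose together with five library-drug doses (not always all listed) in √10 steps, by pin tool, on the day after seeding. Nuclei were counted after 5 days, and relative viability is the treated-to-vehicle ratio of nuclei counts. Values are medians of duplicate plates.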

NCI-H1975 = test system: NCI-H1975
Outline: as §1

PC-3 [JPC-3] = test system: PC-3 [JPC-3]
Outline: as §1

H3255 = test system: H3255
Outline: as §1

NCI-H1437 = test system: NCI-H1437
Outline: as §1

NCI-H2087 = test system: NCI-H2087
Outline: as §1

NCI-H2085 = test system: NCI-H2085
Outline: as §1

LC-2-ad = test system: LC-2-ad
Outline: as §1

COR-L23 = test system: COR-L23
Outline: as §1

NCI-H2228 = test system: NCI-H2228
Outline: as §1

HCC-15 = test system: HCC-15
Outline: as §1

SMILES: CCNC(=O)c1noc(-c2cc(C(C)C)c(O)cc2O)c1-c1ccc(CN2CCOCC2)cc1 [Luminespib] + CS(=O)(=O)N1CCN(Cc2cc3nc(-c4cccc5[nH]ncc45)nc(N4CCOCC4)c3s2)CC1 [Pictilisib] (partner 1 µM)
- relative viability (NCI-H1666; first compound 0.002 µM): 0.423
- relative viability (NCI-H1666; first compound 0.006325 µM): 0.375
- relative viability (NCI-H1666; first compound 0.02 µM): 0.315
- relative viability (NCI-H1666; first compound 0.06325 µM): 0.235
- relative viability (NCI-H1666; first compound 0.2 µM): 0.145
- relative viability (NCI-H1975; first compound 0.002 µM): 0.26
- relative viability (NCI-H1975; first compound 0.006325 µM): 0.257
- relative viability (NCI-H1975; first compound 0.02 µM): 0.135
- relative viability (NCI-H1975; first compound 0.06325 µM): 0.115
- relative viability (NCI-H1975; first compound 0.2 µM): 0.106
- relative viability (PC-3 [JPC-3]; first compound 0.002 µM): 0.756
- relative viability (PC-3 [JPC-3]; first compound 0.006325 µM): 0.726
- relative viability (PC-3 [JPC-3]; first compound 0.02 µM): 0.626
- relative viability (PC-3 [JPC-3]; first compound 0.06325 µM): 0.578
- relative viability (PC-3 [JPC-3]; first compound 0.2 µM): 0.286
- relative viability (H3255; first compound 0.002 µM): 0.497
- relative viability (H3255; first compound 0.006325 µM): 0.474
- relative viability (H3255; first compound 0.02 µM): 0.31
- relative viability (H3255; first compound 0.06325 µM): 0.327
- relative viability (H3255; first compound 0.2 µM): 0.179
- relative viability (NCI-H1437; first compound 0.002 µM): 0.343
- relative viability (NCI-H1437; first compound 0.006325 µM): 0.495
- relative viability (NCI-H1437; first compound 0.02 µM): 0.249
- relative viability (NCI-H1437; first compound 0.06325 µM): 0.133
- relative viability (NCI-H1437; first compound 0.2 µM): 0.0978
- relative viability (NCI-H2087; first compound 0.002 µM): 0.908
- relative viability (NCI-H2087; first compound 0.006325 µM): 0.776
- relative viability (NCI-H2087; first compound 0.02 µM): 0.663
- relative viability (NCI-H2087; first compound 0.06325 µM): 0.2
- relative viability (NCI-H2087; first compound 0.2 µM): 0.157
- relative viability (NCI-H2085; first compound 0.002 µM): 0.448
- relative viability (NCI-H2085; first compound 0.006325 µM): 0.511
- relative viability (NCI-H2085; first compound 0.02 µM): 0.354
- relative viability (NCI-H2085; first compound 0.06325 µM): 0.51
- relative viability (NCI-H2085; first compound 0.2 µM): 0.28
- relative viability (LC-2-ad; first compound 0.002 µM): 0.526
- relative viability (LC-2-ad; first compound 0.006325 µM): 0.477
- relative viability (LC-2-ad; first compound 0.02 µM): 0.276
- relative viability (LC-2-ad; first compound 0.06325 µM): 0.11
- relative viability (LC-2-ad; first compound 0.2 µM): 0.0708
- relative viability (COR-L23; first compound 0.002 µM): 0.856
- relative viability (COR-L23; first compound 0.006325 µM): 0.633
- relative viability (COR-L23; first compound 0.02 µM): 0.368
- relative viability (COR-L23; first compound 0.06325 µM): 0.0587
- relative viability (COR-L23; first compound 0.2 µM): 0.0601
- relative viability (NCI-H2228; first compound 0.002 µM): 0.496
- relative viability (NCI-H2228; first compound 0.006325 µM): 0.373
- relative viability (NCI-H2228; first compound 0.02 µM): 0.122
- relative viability (NCI-H2228; first compound 0.06325 µM): 0.168
- relative viability (NCI-H2228; first compound 0.2 µM): 0.108
- relative viability (HCC-15; first compound 0.002 µM): 0.724
- relative viability (HCC-15; first compound 0.006325 µM): 0.644
- relative viability (HCC-15; first compound 0.02 µM): 0.623
- relative viability (HCC-15; first compound 0.06325 µM): 0.413
- relative viability (HCC-15; first compound 0.2 µM): 0.157

— the supplement of paper PMC10307832
